Consider two compounds from PMC12530843, “Identification of a New Interesting BAG3 Modulator Able to Disrupt Cancer‐Related Pathways” (Chemmedchem, 2025).

Read-outs that look alike come from different tables or passages of the source.

By mortality is commonly meant the share of the test organisms that died. The term IC50 denotes the concentration that inhibits the measured activity by half. In general, Kd refers to the constant that tells how readily two partners part at equilibrium.

In series [1] the test system is HeLa cells. The experiment in a line: Cell cycle / hypodiploid nuclei by PI flow cytometry. It is filed as cell-based, human. Here is the method: Hypodiploid nuclei were analyzed by propidium iodide (PI) staining using flow cytometry. HeLa cells (1 × 10^5 cells well^−1) were cultured in 12‐well plates and allowed to adhere for 24 h. The medium was then refreshed, and cells were treated with SP18 (0.75, 1.5, 3, 6, and 12 µM) for 48 h or compound 2 (10, 30, and 50 µM) for 72 h, with 0.1% (v/v) DMSO as a control. The final concentration of DMSO for the tested compounds was 0.1%, which is consistent with the percentage of DMSO used in the negative control. Following treatment, the culture medium was replaced, and cells were washed twice with PBS before being resuspended in 500 μL of a solution containing 50 mg L^−1 PI, 0.1% (w/v) sodium citrate, and 0.1% Triton X‐100. To include both dead and live cells in the analysis, the culture medium and PBS washes were centrifuged, and the resulting cell pellets were combined with the main cell suspension. Cells were then incubated at 4 °C for 30 min in the dark, and nuclei were analyzed using a Becton Dickinson FACScan flow cytometer (Franklin Lakes, USA) with Cell Quest software. DNA content was recorded, and cellular debris was excluded by adjusting the forward scatter threshold. The percentage of cells in the hypodiploid region (sub‐G0) and those in the G1, S, and G2 phases were calculated.^[ [45] ^] (See Figure S57–S58, Supporting Information).
Background: A flow cytometer gives signals particle by particle.

In series [2] the test system is HeLa cells. In words: MTT cell viability, HeLa. It is filed as cell-based. The method, then: (§1) Human cell lines of lung adenocarcinoma (A549), cervical carcinoma (HeLa), malignant melanoma (A375), breast adenocarcinoma (MCF7), and immortalized human keratinocytes (HaCaT) were cultured in high‐glucose DMEM supplemented with FBS (10%, v/v), glutamine (2 mM L^−1), penicillin (100 U mL^−1), and streptomycin ([…]). Cells were maintained at 37 °C in a humidified 5% CO2 atmosphere and subcultured every 2 days to maintain logarithmic growth. The human cell lines were kindly donated by Prof. Ornella Moltedo, Department of Pharmacy, University of Salerno.^[ [15] ^, [44] ^]
Cell viability was evaluated using a colorimetric assay to measure mitochondrial metabolic activity through the reduction of 3‐[4,5‐dimethylthiazol‐2,5‐diphenyl‐2H‐tetrazolium bromide (MTT) to purple formazan. Stock solutions of SP18 and compounds 1, 2, 5–8 (50 mM in DMSO) were stored at −20 °C in the dark and diluted immediately before addition to the sterile culture medium. The final concentration of DMSO for the tested compounds was 0.1%, which was consistent with the percentage of DMSO used in the negative control. A549 (3.5 × 10³ cells well^−1), HeLa (3.5 × 10³ cells well^−1), A375 (5.0 × 10³ cells well^−1), and MCF7 (3.5 × 10³ cells well^−1) cells were seeded in triplicate in 96‐well plates. After 24 h to allow for attachment, cells were treated with various concentrations of the compounds (10 and 50 µM), using 0.1% (v/v) DMSO as a negative control and 10% (v/v) DMSO as a positive control following treatment, 20 μL of MTT solution (5 mg mL^−1 in PBS) were added to each well, and cells were incubated for 3 h at 37 °C. Formazan crystals were then dissolved in 100 μL of a buffer containing 50% (v/v) N,N‐dimethylformamide and 20% SDS (pH 4.5), and absorbance was measured at 570 nm using a Multiskan GO Microplate Spectrophotometer (Thermo Fisher Scientific, USA).^[ [44] ^] […] IC50 values, defined as the concentration causing 50% inhibition of cell survival, were calculated and compared to DMSO‐treated controls using GraphPad Prism 8.0 software via nonlinear regression. IC50 values for SP18 and compound 2 were also determined in HaCaT cells (5.0 × 10³ cells well^−1) after 48 or 72 h of treatment.^[ [15] ^]

In another series the test system is HaCaT cells. The experiment in a line: MTT cell viability, HaCaT healthy keratinocytes. It is filed as cell-based, human. The method, then:
as §1
Cell viability was evaluated using a colorimetric assay to measure mitochondrial metabolic activity through the reduction of 3‐[4,5‐dimethylthiazol‐2,5‐diphenyl‐2H‐tetrazolium bromide (MTT) to purple formazan. Stock solutions of SP18 and compounds 1, 2, 5–8 (50 mM in DMSO) were stored at −20 °C in the dark and diluted immediately before addition to the sterile culture medium. The final concentration of DMSO for the tested compounds was 0.1%, which was consistent with the percentage of DMSO used in the negative control. […] Formazan crystals were then dissolved in 100 μL of a buffer containing 50% (v/v) N,N‐dimethylformamide and 20% SDS (pH 4.5), and absorbance was measured at 570 nm using a Multiskan GO Microplate Spectrophotometer (Thermo Fisher Scientific, USA).^[ [44] ^] […]

The target in another series is T1, BAG3 full length (Homo sapiens, UniProt O95817).
T1 construct: purchased Novus Biologicals (Littleton, Colorado)
The experiment in a line: SPR binding on full-length BAG3. The settings on record: Biacore T200, 25 °C, 1:1 model; for Kd: read-out: BAG3 FULL KD ± SD. Here is the method: (§2) Recombinant human BAG3 protein (Bcl2‐associated athanogene 3) was obtained from Novus Biologicals (Littleton, Colorado), while the BAG3 domain (BAG3‐BD) was sourced from ARETA International S.r.l. (Gerenzano, Italy). We used (Z)‐ethyl 2‐(5‐(3,4‐dihydroxybenzylidene)‐2,4‐dioxothiazolidin‐3‐yl)acetate (LK4), a BAG3 inhibitor previously identified by our group.^[ [13] ^] SPR spectroscopy was performed using a Biacore T200 optical biosensor with CM5 sensor chips (Cytiva, Marlborough, USA) to assess the affinity of synthesized molecules for BAG3 and BAG‐BD. BAG3 and BAG‐BD were immobilized on CM5 sensor chip using standard amine‐coupling protocol.^[ [15] ^, [42] ^, [43] ^] BAG3 protein (0.067 μg μL^−1 in 10 mM CH3COONa, pH 4.5) was immobilized at a flow rate of 10 μL min^−1, achieving a surface density of 14 kRU, while BAG3‐BD (0.38 μg μL^−1 in 10 mM CH3COONa, pH 4.5) reached a density of 4 kRU. For the experiments, BAG3 and BAG‐BD surfaces, as well as an unmodified reference surface, were prepared for simultaneous analysis. Compounds 1–10 and LK4 were initially dissolved to 10 mM in 100% DMSO, then diluted 1:20 (v/v) in PBS‐P buffer (0.2 M phosphate buffer, 27 mM KCl, 1.37 M NaCl, 0.5% surfactant P20) resulting in a final DMSO concentration of 5.0%. The compounds were injected in a concentration series (1:2 dilution, 10 different concentrations) ranging from 0 to 100 μM, using 96‐well plates. SPR experiments were conducted at 25 °C with a flow rate of 20 μL min^−1, featuring a 90 s association phase followed by a 400 s dissociation phase. Changes in mass, recorded as resonance units (RU), were used to quantify binding responses, while K D values were determined using Biaevaluation software by globally fitting the double‐referenced association and dissociation data to a 1:1 interaction model. (See Figure S43–S56, Supporting Information).

The next series has as its target T2, BAG3-BD (Homo sapiens, UniProt O95817).
T2 construct: the BAG3 domain (BAG3‐BD) was sourced from ARETA International S.r.l; (Gerenzano, Italy); purchased ARETA International S.r.l
T2 sequence (O95817 421-498 limits assumed): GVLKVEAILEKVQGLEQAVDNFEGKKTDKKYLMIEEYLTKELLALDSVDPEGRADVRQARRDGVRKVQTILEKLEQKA
In words: SPR binding on BAG3 BAG domain. The note with it: Biacore T200, 25 °C, 1:1 model; for Kd: read-out: BAG3–BD KD ± SD. Here is the method: as §2
For orientation: SPR reads the build-up and loss of mass on a sensor chip optically.

T1 sequence (O95817 whole entry): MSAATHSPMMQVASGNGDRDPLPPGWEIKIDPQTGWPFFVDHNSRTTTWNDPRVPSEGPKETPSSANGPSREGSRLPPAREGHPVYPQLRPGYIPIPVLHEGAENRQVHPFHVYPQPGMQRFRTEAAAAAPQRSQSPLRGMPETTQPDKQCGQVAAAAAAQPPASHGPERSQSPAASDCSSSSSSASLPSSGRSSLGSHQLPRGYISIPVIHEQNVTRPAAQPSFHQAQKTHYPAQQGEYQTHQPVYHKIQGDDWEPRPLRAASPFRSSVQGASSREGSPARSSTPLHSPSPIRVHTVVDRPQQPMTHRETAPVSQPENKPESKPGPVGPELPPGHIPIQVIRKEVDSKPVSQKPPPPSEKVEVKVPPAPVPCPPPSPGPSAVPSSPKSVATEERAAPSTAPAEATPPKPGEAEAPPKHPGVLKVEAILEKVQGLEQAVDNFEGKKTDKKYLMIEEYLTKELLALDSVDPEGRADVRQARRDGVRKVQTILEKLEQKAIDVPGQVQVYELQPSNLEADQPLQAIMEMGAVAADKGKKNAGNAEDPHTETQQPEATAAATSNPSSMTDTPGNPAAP

For `O=C(OCc1cn(Cc2ccc3c(c2)C(=O)c2ccccc2C3=O)nn1)c1cccc([N+](=O)[O-])c1` [Compound 2, (1‐((9,10‐Dioxo‐9,10‐dihydroanthracen‐2‐yl)methyl)‐1H‐1,2,3‐triazol‐4‐yl)methyl 3‐nitrobenzoate], in the series with HeLa cells [1] (72 h, 10, 30 and 50 µM), the “effect on cell cycle / hypodiploid nuclei” value is “induces hypodiploid nuclei formation in a concentration‐dependent manner”. Besides, the mortality at 50 µM in the series with HeLa cells [2] (Homo sapiens, HeLa, 50 µM, 72 h) was about 70%. Further, the IC50 in the series with HeLa cells [2] (Homo sapiens, HeLa, 72 h of exposure, read-out: IC50 on HeLa cells) is 40.8 ± 5.5 µM. Further, the “cytotoxicity on healthy HaCaT cells” value in the series on HaCaT cells (72 h, up to 70 µM (highest concentration tested)) was “no significant cytotoxicity”. Besides, on BAG3 full length, the “BAG3 FULL KD ± SD” value is “low micromolar range” and the Kd was found to be 1.04 ± 0.03 µM. On BAG3-BD, the “BAG3–BD KD ± SD” value is “low micromolar range” and the Kd turned out to be 0.38 ± 0.05 µM.
With `O=C(OCc1cn(Cc2ccc(C(=O)c3ccccc3)cc2)nn1)c1cccc([N+](=O)[O-])c1` [SP18], in the series on HeLa cells [1] (48 h, 0.75 to 12 µM), the “effect on cell cycle / hypodiploid nuclei” value is “induces hypodiploid nuclei formation in a concentration‐dependent manner and causes an S‐phase block”. The “cytotoxicity against HeLa cells (screen)” value with HeLa cells [2] (10 and 50 µM, 72 h) is reported as “significant cytotoxicity”. Further, the IC50 with HeLa cells [2] (Homo sapiens, HeLa, 48 h of treatment, read-out: IC50 against HeLa) turned out to be 14.8 ± 1.34 µM; with HaCaT cells (Homo sapiens, HaCaT, 48 h, seven concentrations, MTT), 22.1 ± 0.67 µM. Also, the Kd turned out to be 36 ± 0.85 µM at BAG3 full length and 43.5 ± 5.09 µM at BAG3-BD.
